Reference: patent US10722514B2 (FLX Bio, Inc., priority 2017, dated 2020)
Where a name gives a salt, the structure may show the parent alone.

Biological target: T1, recombinant full-length USP7 (Homo sapiens, UniProt Q93009)
T1 construct: A 25 μl reaction volume containing recombinant full-length USP7 (62 pM)
Assay: USP7-mediated ubiquitin-rhodamine cleavage assay
Format: biochemical
Conditions: recombinant full-length USP7 62 pM; ubiquitin-rhodamine 100 nM; 30-minute incubation with compound, 1 hour reaction at room temperature; read-out: Potency: USP7 IC50
Procedure, shortened: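 Full-length recombinant USP7 (62 pM) in 20 mM HEPES pH 7.3, 150 mM NaCl, 1 mM TCEP, 125 μg/ml BSA, 1% DMSO, preincubated with compound 30 min at RT. Ubiquitin-rhodamine (100 nM final) cleaved 1 h at RT in the dark, stopped with acetic acid; rhodamine fluorescence read, IC50 by 4-parameter nonlinear fit.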

T1 sequence (Q93009 whole entry): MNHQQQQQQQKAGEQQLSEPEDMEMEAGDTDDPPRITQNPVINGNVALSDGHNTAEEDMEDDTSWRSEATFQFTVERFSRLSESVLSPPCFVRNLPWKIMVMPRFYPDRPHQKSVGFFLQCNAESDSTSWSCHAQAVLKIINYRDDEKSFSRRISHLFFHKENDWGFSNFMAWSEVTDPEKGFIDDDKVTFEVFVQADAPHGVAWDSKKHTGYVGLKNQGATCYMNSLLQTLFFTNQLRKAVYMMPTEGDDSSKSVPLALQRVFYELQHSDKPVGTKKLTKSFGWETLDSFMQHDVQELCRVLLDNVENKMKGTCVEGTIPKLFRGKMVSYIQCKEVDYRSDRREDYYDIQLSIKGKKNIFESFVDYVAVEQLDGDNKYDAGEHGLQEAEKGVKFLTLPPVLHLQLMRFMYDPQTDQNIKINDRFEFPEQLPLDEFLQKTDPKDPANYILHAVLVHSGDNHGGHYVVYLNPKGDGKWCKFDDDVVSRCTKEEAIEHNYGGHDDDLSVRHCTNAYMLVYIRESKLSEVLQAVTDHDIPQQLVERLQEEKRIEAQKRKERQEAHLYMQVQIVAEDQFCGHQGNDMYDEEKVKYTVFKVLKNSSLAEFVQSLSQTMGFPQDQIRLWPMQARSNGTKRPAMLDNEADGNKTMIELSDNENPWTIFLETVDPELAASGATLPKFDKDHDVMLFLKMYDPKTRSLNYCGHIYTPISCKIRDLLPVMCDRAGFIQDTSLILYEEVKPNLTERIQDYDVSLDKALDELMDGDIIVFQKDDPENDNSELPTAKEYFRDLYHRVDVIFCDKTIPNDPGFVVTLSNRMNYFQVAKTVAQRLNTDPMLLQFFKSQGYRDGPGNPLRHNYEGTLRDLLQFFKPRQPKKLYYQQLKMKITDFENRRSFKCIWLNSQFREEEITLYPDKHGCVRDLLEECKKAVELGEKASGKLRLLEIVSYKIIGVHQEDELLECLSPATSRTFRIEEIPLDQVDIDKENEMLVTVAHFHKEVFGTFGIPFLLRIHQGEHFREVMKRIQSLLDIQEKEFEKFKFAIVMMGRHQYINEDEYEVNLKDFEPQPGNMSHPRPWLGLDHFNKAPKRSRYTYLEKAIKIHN

| Compound | IC50 [nM] |
| --- | --- |
| Cc1cc(Cl)cc(-c2ncnc3ccsc23)c1OCC1(C)CNC1 [Example 26, 4-(5-Chloro-3-methyl-2-((3-methylazetidin-3-yl)methoxy)phenyl)thieno[3,2-d]pyrimidine] | 10000 to 30000 |
| Cc1cc(Cl)cc(-c2ncnc3cc(CN4C(=O)C5CC5C4=O)sc23)c1OC1CCNCC1 (stereo not drawn) [Example 231, 3-((4-(5-Chloro-3-methyl-2-(piperidin-4-yloxy)phenyl)thieno[3,2-d]pyrimidin-6-yl)methyl)-3-azabicyclo[3.1.0]hexane-2,4-dione] | 1000 to 10000 |
| Cc1cc(Cl)cc(-c2ccnc3cc(CN4C(=O)CSC4=O)sc23)c1O[C@H]1CCCNC1 [Example 249, (S)-3-((7-(5-Chloro-3-methyl-2-(piperidin-3-yloxy)phenyl)thieno[3,2-b]pyridin-2-yl)methyl)thiazolidine-2,4-dione] | < 1000 |
| Cc1cc(C)c(O[C@H]2CCCNC2)c(-c2ccnc3cc(CO)sc23)c1 [Example 248, (S)-(7-(3,5-Dimethyl-2-(piperidin-3-yloxy)phenyl)thieno[3,2-b]pyridin-2-yl)methanol] | 10000 to 30000 |
| N#Cc1cc(-c2ccnc3cc(CN4C(=O)CCC4=O)sc23)c(O[C@@H]2CNC[C@@H]2F)cc1F [Example 135, 5-(2-((2,5-Dioxopyrrolidin-1-yl)methyl)thieno[3,2-b]pyridin-7-yl)-2-fluoro-4-(((3R,4S)-4-fluoropyrrolidin-3-yl)oxy)benzonitrile] | 1000 to 10000 |
| Cc1cc(Cl)cc(-c2ccnc3cc(CO)sc23)c1O[C@@H]1CC[C@@H](N(C)C)C1 [Example 93, (7-(5-Chloro-2-(((1R,3R)-3-(dimethylamino)cyclopentyl)oxy)-3-methylphenyl)thieno[3,2-b]pyridin-2-yl)methanol] | 10000 to 30000 |
| Cc1cc(Cl)cc(-c2ccnc3cc(CN4C(=O)CCC4C(F)(F)F)sc23)c1O[C@@H]1CNC[C@@H]1F (stereo partly drawn) [Example 147, 1-((7-(5-Chloro-2-(((3R,4S)-4-fluoropyrrolidin-3-yl)oxy)-3-methylphenyl)thieno[3,2-b]pyridin-2-yl)methyl)-5-(trifluoromethyl)pyrrolidin-2-one] | < 1000 |
| Cc1cc(Cl)cc(-c2ccnc3cc(CN4C(=O)CCC4=O)sc23)c1O[C@@H]1CNC[C@H]1F [Example 104, 1-((7-(5-Chloro-2-(((3R,4R)-4-fluoropyrrolidin-3-yl)oxy)-3-methylphenyl)thieno[3,2-b]pyridin-2-yl)methyl)pyrrolidine-2,5-dione] | < 1000 |
| Cc1cc(Cl)cc(-c2ccnc3cc(CN4C(=O)C5CCCN5C4=O)sc23)c1O[C@@H]1CNC[C@@H]1F (stereo partly drawn) [Example 143, 2-((7-(5-Chloro-2-(((3R,4S)-4-fluoropyrrolidin-3-yl)oxy)-3-methylphenyl)thieno[3,2-b]pyridin-2-yl)methyl)tetrahydro-1H-pyrrolo[1,2-c] imidazole-1,3(2H)-dione] | < 1000 |
| Cc1cc(Cl)cc(-c2ccnc3cc(CN4C(=O)CCC4=O)sc23)c1OC1CN2CCC1CC2 (stereo not drawn) [Example 318, 1-[[7-(5-chloro-3-methyl-2-quinuclidin-3-yloxy-phenyl)thieno[3,2-b]pyridin-2-yl]methyl]pyrrolidine-2,5-dione; 2,2,2-trifluoroacetic acid] | < 1000 |
| CC(=O)N[C@H]1CNC[C@H]1Oc1c(C)cc(Cl)cc1-c1ccnc2cc(CN3C(=O)CCC3=O)sc12 [Example 85, N-((3S,4R)-4-(4-Chloro-2-(2-((2,5-dioxopyrrolidin-1-yl)methyl)thieno[3,2-b]pyridin-7-yl)-6-methylphenoxy)pyrrolidin-3-yl)acetamide] | 1000 to 10000 |

Next, values leading:

| IC50 [nM] | Compound |
| --- | --- |
| < 1000 | Cc1cc(Cl)cc(-c2ncnc3cc(CN4C(=O)C5C(C4=O)C5(C)C)sc23)c1OC1CNCC1(C)F (stereo not drawn) [Example 386, 3-[[4-[5-chloro-2-(4-fluoro-4-methyl-pyrrolidin-3-yl)oxy-3-methyl-phenyl]thieno[3,2-d]pyrimidin-6-yl]methyl]-6,6-dimethyl-3-azabicyclo[3.1.0]hexane-2,4-dione dihydrochloride] |
| < 1000 | Cc1cc(Cl)cc(-c2ccnc3cc(CN4C(=O)c5ccncc5C4=O)sc23)c1O[C@H]1CCCNC1 [Example 335, 2-[[7-[5-chloro-3-methyl-2-[[(3S)-3-piperidyl]oxy]phenyl]thieno[3,2-b]pyridin-2-yl]methyl]pyrrolo[3,4-c]pyridine-1,3-dione; 2,2,2-trifluoroacetic acid] |
| < 1000 | Cc1cc(Cl)cc(-c2ncnc3cc(CN4C(=O)C5C(C4=O)C5(C)C)sc23)c1O[C@@H]1CCNC[C@H]1F (stereo partly drawn) [Example 352, 3-[[4-[5-chloro-2-[[(3R,4R)-3-fluoro-4-piperidyl]oxy]-3-methyl-phenyl]thieno[3,2-d]pyrimidin-6-yl]methyl]-6,6-dimethyl-3-azabicyclo[3.1.0]hexane-2,4-dione; 2,2,2-trifluoroacetic acid] |
| < 1000 | Cc1cc(Cl)cc(-c2ccnc3cc(CN4C(=O)C5C(C4=O)C5(C)C)sc23)c1OC1(C)CNC1 (stereo not drawn) [Example 393, 3-[[7-[5-chloro-3-methyl-2-(3-methylazetidin-3-yl)oxy-phenyl]thieno[3,2-b]pyridin-2-yl]methyl]-6,6-dimethyl-3-azabicyclo[3.1.0]hexane-2,4-dione dihydrochloride] |
| < 1000 | Cc1cc(Cl)cc(-c2ncnc3cc(CN4C(=O)C5C(C4=O)C5(C)C)sc23)c1O[C@H]1CCCN[C@H]1C (stereo partly drawn) [Example 359, 3-[[4-[5-chloro-3-methyl-2-[[(2S,3S)-2-methyl-3-piperidyl]oxy]phenyl]thieno[3,2-d]pyrimidin-6-yl]methyl]-6,6-dimethyl-3-azabicyclo[3.1.0]hexane-2,4-dione] |

Same assay, conditions: recombinant full-length USP7 62 pM; ubiquitin-rhodamine 100 nM; 30-minute incubation, 1 hour reaction at room temperature; read-out: Potency (USP7 IC50)

| IC50 [nM] | Compound |
| --- | --- |
| < 1000 | Cc1cc(Cl)cc(-c2ccnc3cc(Cn4c(=O)ccn(CC(F)(F)F)c4=O)sc23)c1OC1CC2(COC2)C1 [Example 679, 3-[[7-[5-chloro-3-methyl-2-(2-oxaspiro[3.3]heptan-6-yloxy)phenyl]thieno[3,2-b]pyridin-2-yl]methyl]-1-(2,2,2-trifluoroethyl)pyrimidine-2,4-dione] |

Same assay, conditions: recombinant full-length USP7 62 pM; ubiquitin-rhodamine 100 nM; 30-minute pre-incubation, 1 hour reaction at room temperature; read-out: Potency (USP7 IC50)

| Compound | IC50 [nM] |
| --- | --- |
| Cc1cc(Cl)cc(-c2ccnc3cc(Cn4c(=O)ccn(CC(F)(F)F)c4=O)sc23)c1OC1CN2CCC1CC2 (stereo not drawn) [Example 594, 3-[[7-(5-chloro-3-methyl-2-quinuclidin-3-yloxy-phenyl)thieno[3,2-b]pyridin-2-yl]methyl]-1-(2,2,2-trifluoroethyl)pyrimidine-2,4-dione; 2,2,2-trifluoroacetic acid] | < 1000 |
| Cc1cc(Cl)cc(-c2ccnc3cc(Cn4c(=O)ccn(C)c4=O)sc23)c1OC1CC(N2CCOCC2)C1 (stereo not drawn) [Example 516] | < 1000 |

Next, values leading:

| IC50 [nM] | Compound |
| --- | --- |
| < 1000 | Cc1cc(Cl)cc(-c2ccnc3cc(Cn4c(=O)ccn(C)c4=O)sc23)c1O[C@H]1CCN(CCO)C[C@@H]1F [Example 483, 3-[[7-[5-chloro-2-[[(3S,4S)-3-fluoro-1-(2-hydroxyethyl)-4-piperidyl]oxy]-3-methyl-phenyl]thieno[3,2-b]pyridin-2-yl]methyl]-1-methyl-pyrimidine-2,4-dione; 2,2,2-trifluoroacetic acid] |
| < 1000 | Cc1cc(Cl)cc(-c2ccnc3cc(Cn4c(=O)ccn(CC(F)(F)F)c4=O)sc23)c1OCC1COCCN1 (stereo not drawn) [Example 646, 3-[[7-[5-chloro-3-methyl-2-(morpholin-3-ylmethoxy)phenyl]thieno[3,2-b]pyridin-2-yl]methyl]-1-(2,2,2-trifluoroethyl)pyrimidine-2,4-dione; 2,2,2-trifluoroacetic acid] |
| < 1000 | Cc1cc(Cl)cc(-c2ccnc3cc(Cn4c(=O)ccn(CC(F)(F)F)c4=O)sc23)c1O[C@@H]1CCN(CC(F)F)C[C@@H]1C [Example 642, 3-[[7-[5-chloro-2-[[(3S,4R)-1-(2,2-difluoroethyl)-3-methyl-4-piperidyl]oxy]-3-methyl-phenyl]thieno[3,2-b]pyridin-2-yl]methyl]-1-(2,2,2-trifluoroethyl)pyrimidine-2,4-dione] |
| < 1000 | Cc1cc(Cl)cc(-c2ncnc3cc(Cn4c(=O)c(F)cn(CC(F)(F)F)c4=O)sc23)c1O[C@H]1CCCNC1 [Example 556, 3-[[4-[5-chloro-3-methyl-2-[[(3S)-3-piperidyl]oxy]phenyl]thieno[3,2-d]pyrimidin-6-yl]methyl]-5-fluoro-1-(2,2,2-trifluoroethyl)pyrimidine-2,4-dione] |
| < 1000 | Cc1cc(Cl)cc(-c2ccnc3cc(Cn4c(=O)ccn(CC(F)(F)F)c4=O)sc23)c1OCC1(F)CNC1 [Example 641, 3-[[7-[5-chloro-2-[(3-fluoroazetidin-3-yl)methoxy]-3-methyl-phenyl]thieno[3,2-b]pyridin-2-yl]methyl]-1-(2,2,2-trifluoroethyl)pyrimidine-2,4-dione] |
| < 1000 | Cc1cc(Cl)cc(-c2ccnc3cc(Cn4c(=O)ccn(C)c4=O)sc23)c1O[C@@H]1CN[C@H](C(=O)O)C1 [Example 486, (2S,4S)-4-[4-chloro-2-methyl-6-[2-[(3-methyl-2,6-dioxo-pyrimidin-1-yl)methyl]thieno[3,2-b]pyridin-7-yl]phenoxy]pyrrolidine-2-carboxylic acid] |
| < 1000 | Cc1cc(Cl)cc(-c2ccnc3cc(CN4C(=O)CCC4=O)sc23)c1O[C@@H]1CNCC[C@H]1C [Example 415, 1-[[7-[5-chloro-3-methyl-2-[[(3S,4R)-4-methyl-3-piperidyl]oxy]phenyl]thieno[3,2-b]pyridin-2-yl]methyl]pyrrolidine-2,5-dione] |
| < 1000 | Cc1cc(Cl)cc(-c2ncnc3cc(Cn4c(=O)ccn(C(C)C)c4=O)sc23)c1O[C@H]1CCCN(C)C1 [Example 512, 3-[[4-[5-chloro-3-methyl-2-[[(3S)-1-methyl-3-piperidyl]oxy]phenyl]thieno[3,2-d]pyrimidin-6-yl]methyl]-1-isopropyl-pyrimidine-2,4-dione] |
